Target: Voltage-gated potassium channel, KQT; KCNQ2(Kv7.2)/KCNQ3(Kv7.3) (Homo sapiens, UniProt O43525+O43526)
Experiment: Activation of KCNQ2/Q3
Assay type: protein-complex assay

Sequence of Voltage-gated potassium channel, KQT; KCNQ2(Kv7.2)/KCNQ3(Kv7.3) (O43526 whole entry): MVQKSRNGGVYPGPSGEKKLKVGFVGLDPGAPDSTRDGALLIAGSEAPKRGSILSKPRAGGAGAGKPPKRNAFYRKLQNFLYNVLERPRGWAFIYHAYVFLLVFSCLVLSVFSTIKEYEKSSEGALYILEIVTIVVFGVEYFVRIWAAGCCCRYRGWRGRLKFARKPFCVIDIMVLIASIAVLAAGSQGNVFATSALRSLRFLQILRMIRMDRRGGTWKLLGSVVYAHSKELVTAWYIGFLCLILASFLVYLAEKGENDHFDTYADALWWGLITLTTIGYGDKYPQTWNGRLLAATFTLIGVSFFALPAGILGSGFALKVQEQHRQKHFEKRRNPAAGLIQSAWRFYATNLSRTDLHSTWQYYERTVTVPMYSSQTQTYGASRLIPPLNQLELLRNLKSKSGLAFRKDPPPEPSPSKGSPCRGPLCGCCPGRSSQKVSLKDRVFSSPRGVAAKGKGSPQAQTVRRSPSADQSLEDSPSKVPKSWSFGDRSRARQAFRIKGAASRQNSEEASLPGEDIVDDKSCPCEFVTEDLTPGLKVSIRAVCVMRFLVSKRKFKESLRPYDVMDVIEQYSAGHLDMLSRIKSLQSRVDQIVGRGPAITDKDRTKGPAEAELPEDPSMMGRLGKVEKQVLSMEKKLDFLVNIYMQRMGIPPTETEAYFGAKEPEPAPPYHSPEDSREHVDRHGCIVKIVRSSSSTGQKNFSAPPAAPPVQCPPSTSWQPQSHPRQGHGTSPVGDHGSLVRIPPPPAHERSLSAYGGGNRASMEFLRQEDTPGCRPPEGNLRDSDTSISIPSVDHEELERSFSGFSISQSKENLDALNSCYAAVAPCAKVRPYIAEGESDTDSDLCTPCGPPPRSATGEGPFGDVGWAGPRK
Sequence of Voltage-gated potassium channel, KQT; KCNQ2(Kv7.2)/KCNQ3(Kv7.3) (O43525 whole entry): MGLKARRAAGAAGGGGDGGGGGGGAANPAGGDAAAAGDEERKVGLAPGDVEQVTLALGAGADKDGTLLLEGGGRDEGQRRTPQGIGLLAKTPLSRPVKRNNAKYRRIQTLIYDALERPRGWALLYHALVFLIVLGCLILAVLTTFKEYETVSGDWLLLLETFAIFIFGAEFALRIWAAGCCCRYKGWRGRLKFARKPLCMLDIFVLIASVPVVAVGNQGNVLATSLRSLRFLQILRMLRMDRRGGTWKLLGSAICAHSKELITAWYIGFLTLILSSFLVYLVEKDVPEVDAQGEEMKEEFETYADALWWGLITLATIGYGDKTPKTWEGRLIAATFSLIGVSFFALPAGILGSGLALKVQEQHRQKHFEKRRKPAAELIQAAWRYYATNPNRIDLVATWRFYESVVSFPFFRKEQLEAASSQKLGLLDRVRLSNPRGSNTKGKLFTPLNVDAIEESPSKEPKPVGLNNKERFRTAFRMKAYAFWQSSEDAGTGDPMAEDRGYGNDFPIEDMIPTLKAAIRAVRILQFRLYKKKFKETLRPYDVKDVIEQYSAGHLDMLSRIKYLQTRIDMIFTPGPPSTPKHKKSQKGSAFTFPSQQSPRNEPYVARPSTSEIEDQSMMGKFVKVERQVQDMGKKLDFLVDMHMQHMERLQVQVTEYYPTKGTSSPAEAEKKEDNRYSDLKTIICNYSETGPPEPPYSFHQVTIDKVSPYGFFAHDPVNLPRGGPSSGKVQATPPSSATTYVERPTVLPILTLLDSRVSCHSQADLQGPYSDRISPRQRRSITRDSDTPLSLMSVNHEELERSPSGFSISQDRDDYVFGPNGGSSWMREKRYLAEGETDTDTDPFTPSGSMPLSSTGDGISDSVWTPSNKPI

| EC50 [nM] | SMILES |
| --- | --- |
| < 100 | Cc1cnc2c(Cc3ccc(F)cc3)c(NC(=O)CC3CCCC3)nn2c1 |
| < 1000 | CC(C)(C)CC(=O)Nc1nn2cccnc2c1-c1ccc(F)cc1 |
| < 500 | CC(C)(C)CC(=O)Nc1nn2cccnc2c1-c1ccc(OC(F)(F)F)cc1 |
